Measurements from patent US20240279201A1, “DUAL WNT SIGNALING PATHWAY INHIBITORS AND AMPK ACTIVATORS FOR TREATMENTS OF DISEASE” (priority 2021, published 2024).

Columns and labels:
[1] = Cytotoxicity (CC50) during the luciferase gene reporter assay; type: cell-based; details: human, HEK293 cells; short treatment duration of the luciferase gene reporter assay
[2] = tested on: Wnt/β-Catenin signaling pathway; assay: Wnt signaling luciferase (TOPflash) reporter gene assay; type: cell-based; details: for IC50: luciferase reporter gene assay, mean of three independent experiments, read-out: IC50 (nM) to inhibit the Wnt signaling activity
Source text: A dual-luciferase gene reporter assay was used to test inhibitory activities of new compounds on Wnt signaling. […] Therefore, the effects of new compounds on AMPK was examined. […]

SMILES	IC50 [2] [nM]	CC50 [1] [nM]	inhibition at 1 µM [2] [%]
Cc1ccccc1-n1nnc(C(=O)Nc2nc3ccc(OC(F)(F)F)cc3s2)c1C [YA4065, 5-Methyl-1-(o-tolyl)-N-(6-(trifluoromethoxy)benzo[d]thiazol-2-yl)-1H-1,2,3-triazole-4-carboxamide]	> 1000	> 92000	16
Cc1ccccc1C1CCC(C(=O)Nc2nc3ccccc3s2)C1 (centres unmarked) [YA4138]	> 1000	> 92000	–
Cc1c(C(=O)Nc2nc3ccccc3s2)cnn1-c1c(F)cccc1Br [YA4017, N-(Benzo[d]thiazol-2-yl)-1-(2-bromo-6-fluorophenyl)-5-methyl-1H-pyrazole-4-carboxamide]	8.2	> 92000	–
Cc1c(C(=O)Nc2nc3ccccc3s2)nnn1-c1ccc(Br)cc1 [YA1086, N-(Benzo[d]thiazol-2-yl)-1-(4-bromophenyl)-5-methyl-1H-1,2,3-triazole-4-carboxamide]	> 1000	> 92000	32
Cc1cccc(-n2nnc(C(=O)Nc3nc4ccccc4s3)c2C)c1C [YA4037]	18	> 92000	83
Cc1ccccc1-n1nnc(C(=O)Nc2nc(-c3ccccc3F)cs2)c1C [YA4143]	> 1000	> 92000	–
Cc1c(C(=O)Nc2nc3ccccc3s2)nnn1-c1c(Cl)cccc1Cl [YA1066, N-(Benzo[d]thiazol-2-yl)-1-(2,6-dichlorophenyl)-5-methyl-1H-1,2,3-triazole-4-carboxamide]	19	> 92000	88
Cc1ccccc1-n1nnc(C(=O)Nc2nc(-c3ccccc3Br)cs2)c1C [YA4135]	> 1000	> 92000	–
Cc1ccccc1-n1nnc(C(=O)Nc2nc3ccc([N+](=O)[O-])cc3s2)c1C [YA4057, 5-Methyl-N-(6-nitrobenzo[d]thiazol-2-yl)-1-(o-tolyl)-1H-1,2,3-triazole-4-carboxamide]	> 1000	> 92000	–
Cc1ccccc1-n1nnc(C(=O)Nc2nc3cc(Br)ccc3s2)c1C [YA4047, N-(5-Bromobenzo[d]thiazol-2-yl)-5-methyl-1-(o-tolyl)-1H-1,2,3-triazole-4-carboxamide]	> 1000	> 92000	14
Cc1c(C(=O)Nc2nc3ccccc3s2)nnn1-c1ccccc1OC(F)(F)F [YA1038, N-(Benzo[d]thiazol-2-yl)-5-methyl-1-(2-(trifluoromethoxy)phenyl)-1H-1,2,3-triazole-4-carboxamide]	> 1000	> 92000	37
Cc1cccc(Br)c1-n1nnc(C(=O)Nc2nc3ccccc3s2)c1C [YA1064, N-(Benzo[d]thiazol-2-yl)-1-(2-bromo-6-methylphenyl)-5-methyl-1H-1,2,3-triazole-4-carboxamide]	126	> 92000	72
Cc1ccccc1-n1nnc(C(=O)Nc2nc3c(Br)cccc3s2)c1C [YA4097, N-(4-Bromobenzo[d]thiazol-2-yl)-5-methyl-1-(o-tolyl)-1H-1,2,3-triazole-4-carboxamide]	> 1000	> 92000	11
Cc1cc(C(=O)Nc2nc3ccccc3s2)c(C)n1-c1ccccc1 [YA4136]	> 1000	> 92000	–
CCc1c(C(=O)Nc2nc3ccccc3s2)nnn1-c1ccccc1F [YA4001, N-(Benzo[d]thiazol-2-yl)-5-ethyl-1-(2-fluorophenyl)-1H-1,2,3-triazole-4-carboxamide]	0.76	> 92000	–
COc1cccc2sc(NC(=O)c3nnn(-c4ccccc4C)c3C)nc12 [YA4061, N-(4-Methoxybenzo[d]thiazol-2-yl)-5-methyl-1-(o-tolyl)-1H-1,2,3-triazole-4-carboxamide]	> 1000	> 92000	27
Cc1c(C(=O)Nc2nc3ccccc3s2)cnn1-c1cccc(Cl)c1F [YA4021, N-(Benzo[d]thiazol-2-yl)-1-(3-chloro-2-fluorophenyl)-5-methyl-1H-pyrazole-4-carboxamide]	9.8	> 92000	–
Cc1c(C(=O)Nc2nc3ccccc3s2)nnn1-c1cccc(Br)c1 [YA1050, N-(Benzo[d]thiazol-2-yl)-1-(3-bromophenyl)-5-methyl-1H-1,2,3-triazole-4-carboxamide]	> 1000	> 92000	7
Cc1c(C(=O)Nc2nc3ccc(F)cc3s2)nnn1-c1ccccc1F [YA4155, N-(6-Fluorobenzo[d]thiazol-2-yl)-1-(2-fluorophenyl)-5-methyl-1H-1,2,3-triazole-4-carboxamide]	0.4	> 92000	96

The next lines start with results.

IC50 [2] [nM]	SMILES	CC50 [1] [nM]	inhibition at 1 µM [2] [%]
0.15	Cc1c(C(=O)Nc2cnc3ccccc3n2)nnn1-c1ccccc1F [YA6138, 1-(2-Fluorophenyl)-5-methyl-N-(quinoxalin-2-yl)-1H-1,2,3-triazole-4-carboxamide]	> 92000	–
> 1000	Cc1ccccc1-n1nnc(C(=O)Nc2ccc3ncccc3n2)c1C [YA6147, 5-Methyl-N-(1,5-naphthyridin-2-yl)-1-(o-tolyl)-1H-1,2,3-triazole-4-carboxamide]	> 92000	–
0.5	CCc1c(C(=O)Nc2nc3ccc(F)cc3s2)nnn1-c1ccccc1F [YA4165, 5-Ethyl-N-(6-fluorobenzo[d]thiazol-2-yl)-1-(2-fluorophenyl)-1H-1,2,3-triazole-4-carboxamide]	> 92000	–
> 1000	O=C(Nc1ccc2ccccc2n1)c1nnn(-c2ccccc2Cl)n1 [YA70033, 2-(2-Chlorophenyl)-N-(quinolin-2-yl)-2H-tetrazole-5-carboxamide]	> 92000	–
> 1000	Cc1ccccc1-n1nnc(C(=O)Nc2ccc3c(Br)cccc3n2)c1C [YA6167, N-(5-Bromoquinolin-2-yl)-5-methyl-1-(o-tolyl)-1H-1,2,3-triazole-4-carboxamide]	> 92000	–
> 1000	O=C(Nc1cnc2ccccc2n1)c1nnn(-c2ccccc2)n1 [YA6177, 2-Phenyl-N-(quinoxalin-2-yl)-2H-tetrazole-5-carboxamide]	> 92000	–
220	Cc1c(C(=O)Nc2ncc(-c3ccccc3)s2)cnn1-c1ccccc1Br [YA6152, 1-(2-Bromophenyl)-5-methyl-N-(5-phenylthiazol-2-yl)-1H-pyrazole-4-carboxamide]	> 92000	–
3.3	O=C(Nc1nc2ccccc2s1)c1nnn(-c2ccccc2F)c1C(F)(F)F [YA6168, N-(Benzo[d]thiazol-2-yl)-1-(2-fluorophenyl)-5-(trifluoromethyl)-1H-1,2,3-triazole-4-carboxamide]	> 92000	91
2.5	Cc1c(C(=O)Nc2nc3ccccc3s2)nnn1-c1c(F)cccc1F [YA6090, N-(Benzo[d]thiazol-2-yl)-1-(2,6-difluorophenyl)-5-methyl-1H-1,2,3-triazole-4-carboxamide]	> 92000	97
> 1000	Cc1ccccc1-n1nnc(C(=O)Nc2cccc3ncccc23)c1C [YA61693, 5-Methyl-N-(quinolin-5-yl)-1-(o-tolyl)-1H-1,2,3-triazole-4-carboxamide]	> 92000	–
> 1000	Cc1ccccc1-n1nnc(C(=O)Nc2ccc3cc(O)ccc3n2)c1C [YA6079]	> 92000	–
> 1000	COc1ccccc1-n1nnc(C(=O)Nc2ccc3ccccc3n2)n1 [YA70034, 2-(2-Methoxyphenyl)-N-(quinolin-2-yl)-2H-tetrazole-5-carboxamide]	> 92000	–
> 1000	Cc1ccccc1-n1ncc(C(=O)Nc2ccc(-c3ccccc3)cc2)c1C [YA7016, N-([1,1′-biphenyl]-4-yl)-5-methyl-1-(o-tolyl)-1H-pyrazole-4-carboxamide]	> 92000	–
0.11	Cc1c(C(=O)Nc2cnc3ccccc3n2)nnn1-c1ccccc1Cl [YA6139, 1-(2-Chlorophenyl)-5-methyl-N-(quinoxalin-2-yl)-1H-1,2,3-triazole-4-carboxamide]	> 92000	–
> 1000	Cc1ccccc1-n1nnc(C(=O)Nc2cc(Br)c3ccccc3n2)c1C [YA6150, N-(4-bromoquinolin-2-yl)-5-methyl-1-(o-tolyl)-1H-1,2,3-triazole-4-carboxamide]	> 92000	–
470	O=C(Nc1nc2ccccc2s1)c1csc(-c2ccccc2)n1 [YA6082]	> 92000	70
17	O=C(Nc1nc2ccc(F)cc2s1)c1nnn(-c2ccccc2F)c1C(F)(F)F [YA6175, N-(6-Fluorobenzo[d]thiazol-2-yl)-1-(2-fluorophenyl)-5-(trifluoromethyl)-1H-1,2,3-triazole-4-carboxamide]	> 92000	85
> 1000	Cc1cc(Br)ccc1-n1nnc(C(=O)Nc2nc3ccccc3s2)c1C [YA6009]	> 92000	15
> 1000	Cc1ccccc1-n1nnc(C(=O)Nc2nc(-c3ccccn3)cs2)c1C [YA4173]	> 92000	7
> 1000	Cc1ccccc1-c1csc(NC(=O)c2nnn(-c3ccccc3C)c2C)n1 [YA4171]	> 92000	–
1.8	Cc1ccccc1-n1nnc(C(=O)Nc2cnc3ccccc3n2)c1C [YA6045, 5-Methyl-N-(quinoxalin-2-yl)-1-(o-tolyl)-1H-1,2,3-triazole-4-carboxamide]	> 92000	–
1.7	Cc1c(C(=O)Nc2cnc3ccccc3n2)nnn1-c1ccccc1 [YA6141, 5-Methyl-1-phenyl-N-(quinoxalin-2-yl)-1H-1,2,3-triazole-4-carboxamide]	> 92000	–
> 1000	Cc1ccccc1-n1nnc(C(=O)Nc2ccc3cccnc3c2)c1C [YA6162, 5-Methyl-N-(quinolin-7-yl)-1-(o-tolyl)-1H-1,2,3-triazole-4-carboxamide]	> 92000	–
